Where a name gives a salt, the structure may show the parent alone.

For this assay, the system named is IL-1β release upon NLRP3 activation in peripheral blood mononuclear cells (PBMC). As to the kind of experiment: PBMC IC50 determination assay: inhibition of IL-1β release upon NLRP3 activation. It is filed as cell-based. To be noted: PBMC, PBMC primed with LPS 3 h, compound 30 min, stimulated with ATP (5 mM) or nigericin (10 μM) 1 h; IL-1β by ELISA (Protocol A) or HTRF (Protocol B). The procedure: PBMC IC50 determination assay. The compounds of the present disclosure were tested for their inhibitory activity against IL-1β release upon NLRP3 activation in peripheral blood mononuclear cells (PBMC).
Protocol A. PBMC were isolated from buffy coats by density gradient centrifugation on Histopaque-1077 (Sigma, cat no. 10771). Isolated cells were seeded into the wells of a 96-well plate and incubated for 3 h with lipopolysaccharide (LPS). Following medium exchange, the compounds of the present disclosure were added (a single compound per well) and the cells were incubated for 30 min. Next, the cells were stimulated either with ATP (5 mM) or nigericin (10 μM) for 1 h and the cell culture media from the wells were collected for further analysis.
The release of IL-1β into the media was determined by a quantitative detection of IL-1β in the media using an IL-1β enzyme-linked immunosorbent assay (ELISA) Ready-SET-Go!, eBioscience cat. No. 88-7261-88. Briefly, in a first step, high affinity binding plates (Corning, Costar 9018 or NUNC Maxisorp Cat No. 44-2404) were coated overnight at 4° C. with specific capture antibody included in the kit (anti-human IL-1β ref. 14-7018-68). Subsequently, plates were blocked with blocking buffer for 1 h at room temperature (rt) and after washing with a buffer (PBS with 0.05% Tween-20) incubated with protein standard and culture media. After 2 h of incubation at rt, plates were washed and incubated with biotinylated detection antibody included in the kit (anti-human IL-1β Biotin ref 33-7110-68) for 1 h at rt. Plates were washed and incubated with HRP-streptavidin for 30 min at rt and washed again. The signal was developed after addition of 3,3′,5,5′-tetramethylbenzidine-peroxidase (TMB) until colour appeared and the reaction was stopped by 2 M H2SO4. A microplate spectrophotometer (BioTek) was used to detect signals with 450 nm. The detection range of IL-1β ELISA was […].
Protocol B. PBMC were isolated from buffy coats by density gradient centrifugation on Histopaque-1077 (Sigma, cat no. 10771). Isolated cells were seeded into the wells (280,000 cells/well) of a 96-well plate and incubated for 3 h with lipopolysaccharide (LPS, 1 μg/mL diluted 1000× from a 1 mg/mL stock solution). The compounds of the present disclosure were added (a single compound per well) and the cells were incubated for 30 min. Next, the cells were stimulated with ATP (5 mM final concentration diluted 20× from a 100 mM stock solution) for 1 h and the cell culture media from the wells were collected for further analysis.
The release of IL-1β into the media was determined by quantitative detection of IL-1β in the media using HTRF®, CisBio cat. No. 62HIL1BPEH. Briefly, cell culture supernatant were dispensed directly into the assay plate containing antibodies labelled with the HTRF® donor and acceptor. A microplate spectrophotometer (BMG) was used to detect signals at 655 nm and 620 nm. The detection range of IL-1β HTRF® was 39-6500 μg/mL.
(In an ELISA, binding on a coated surface is turned into a signal by an enzyme label.)
The molecule `CC(C)Nc1cc2c(C(C)C)nn(CC(=O)Nc3ncccn3)c(=O)c2s1` [Compound 93, 2-[7-Oxo-4-(propan-2-yl)-2-[(propan-2-yl)amino]-6H,7H-thieno[2,3-d]pyridazin-6-yl]-N-(pyrimidin-2-yl)acetamide] had an IC50 of 100 to 1000 nM.

The molecule `CNc1cc2c(C3CC3)nn(CC(=O)Nc3ncccn3)c(=O)c2s1` [Compound 112, 2-[4-Cyclopropyl-2-(methylamino)-7-oxo-6H,7H-thieno[2,3-d]pyridazin-6-yl]-N-(pyrimidin-2-yl)acetamide] yielded an IC50 of 100 to 1000 nM.

`CC(C)c1nn(CC(=O)Nc2ncc(Cl)cn2)c(=O)c2cn(C(C)C)nc12` [Compound 67, N-(5-Chloropyrimidin-2-yl)-2-(2,7-diisopropyl-4-oxo-2,4-dihydro-5H-pyrazolo[3,4-d]pyridazin-5-yl)acetamide] had an IC50 of 100 to 1000 nM.

Regarding `CC(C)c1nn(CC(=O)N[C@@H]2CCCN(C3CC3)C2)c(=O)c2c1cnn2C` [Compound 1, N-[(3R)-1-Cyclopropyl-3-piperidyl]-2-(4-isopropyl-1-methyl-7-oxo-pyrazolo[3,4-d]pyridazin-6-yl)acetamide], the IC50 lay in the range of 3000 to 10000 nM.

`CC(C)c1nn(CC(=O)Nc2ncco2)c(=O)c2cn(C(C)C)nc12` [Compound 72, 2-(2,7-Diisopropyl-4-oxo-pyrazolo[3,4-d]pyridazin-5-yl)-N-oxazol-2-yl-acetamide] registered an IC50 of 100 to 1000 nM.

`CCc1nc2c(C(C)C)nn(CC(=O)Nc3ncc(F)cn3)c(=O)c2s1` [Compound 36] returned an IC50 of at most 100 nM.

Take `CC(C)c1nn(CC(=O)N[C@@H]2CCCN(C3CC3)C2)c(=O)c2cc(Cl)sc12` [Compound 10, 2-(2-Chloro-7-isopropyl-4-oxo-thieno [2,3-d]pyridazin-5-yl)-N-[(3R)-1-cyclopropyl-3-piperidyl]acetamide]: the IC50 fell in the range of 1000 to 3000 nM.

Turning to `CC(C)c1nn(CC(=O)N[C@@H]2CCCN(C3CC3)C2)c(=O)c2cn(C)nc12` [Compound 3, N-[(3R)-1-Cyclopropyl-3-piperidyl]-2-(7-isopropyl-2-methyl-4-oxo-pyrazolo[3,4-d]pyridazin-5-yl)acetamide], the IC50 lay in the range of 3000 to 10000 nM.

For the molecule `Cc1nc(NC(=O)Cn2nc(C(C)C)c3cc(C4CC4)ncc3c2=O)ns1` [Compound 19, 2-(7-Cyclopropyl-1-isopropyl-4-oxo-pyrido[3,4-d]pyridazin-3-yl)-N-(5-methyl-1,2,4-thiadiazol-3-yl)acetamide], the IC50 lay within 10000 to 50000 nM.

Molecule `CC(C)c1nn(C2(C(=O)Nc3ncccn3)CC2)c(=O)c2cn(C(C)C)nc12` [Compound 50, 1-(2,7-Diisopropyl-4-oxo-2,4-dihydro-5H-pyrazolo[3,4-d]pyridazin-5-yl)-N-(pyrimidin-2-yl)cyclopropane-1-carboxamide] displayed an IC50 of 1000 to 3000 nM.

`CC(C)c1nn(CC(=O)Nc2ncc(F)cn2)c(=O)c2cc(Cl)sc12` [Compound 59, 2-(2-Chloro-7-isopropyl-4-oxothieno[2,3-d]pyridazin-5(4H)-yl)-N-(5-fluoropyrimidin-2-yl)acetamide] yielded an IC50 of 100 to 1000 nM.

On to `Cc1nn(CC(=O)Nc2ccc3nncn3c2)c(=O)c2cc(C3CC3)oc12` [Compound 103, 2-{2-Cyclopropyl-7-methyl-4-oxo-4H,5H-furo[2,3-d]pyridazin-5-yl}-N-{[1,2,4]triazolo[4,3-a]pyridin-6-yl}acetamide], for which the IC50 lay in the range of 1000 to 3000 nM.

Take `CCOc1cc2c(C(C)C)nn(CC(=O)Nc3ncccn3)c(=O)c2s1` [Compound 107, 2-[2-Ethoxy-7-oxo-4-(propan-2-yl)-6H,7H-thieno[2,3-d]pyridazin-6-yl]-N-(pyrimidin-2-yl)acetamide]: the IC50 lay in the range of 1000 to 3000 nM.

As to `CCc1ccc2c(=O)n(CC(=O)Nc3ncc(F)cn3)nc(C(C)C)c2n1` [Compound 43], the IC50 fell in the range of 100 to 1000 nM.

For `CC(C)c1nn(CC(=O)Nc2ncccn2)c(=O)c2sc(CN)cc12` [Compound 120, 2-[2-(Aminomethyl)-7-oxo-4-(propan-2-yl)-6H,7H-thieno[2,3-d]pyridazin-6-yl]-N-(pyrimidin-2-yl)acetamide], the IC50 lay in the range of 10000 to 50000 nM.

Molecule `[2H]C([2H])([2H])Nc1cc2c(C(C)C)nn(CC(=O)Nc3ncccn3)c(=O)c2s1` [Compound 109, 2-{2-Trideuteromethylamino-7-oxo-4-(propan-2-yl)-6H,7H-thieno[2,3-d]pyridazin-6-yl}-N-(pyrimidin-2-yl)acetamide] yielded an IC50 of at most 100 nM.

`COc1cc2c(=O)n(CC(=O)Nc3ncccn3)nc(C(C)C)c2o1` [Compound 108, 2-[2-Methoxy-4-oxo-7-(propan-2-yl)-4H,5H-furo[2,3-d]pyridazin-5-yl]-N-(pyrimidin-2-yl)acetamide]: the IC50 was 3000 to 10000 nM.

Take `Cc1nn(CC(=O)Nc2ncc(F)cn2)c(=O)c2ccc(C3CC3)nc12` [Compound 35, 2-(2-Cyclopropyl-8-methyl-5-oxo-pyrido[2,3-d]pyridazin-6-yl)-N-(5-fluoropyrimidin-2yl)acetamide]: the IC50 lay within 100 to 1000 nM.

On to `CCn1cc2c(=O)n(CC(=O)N[C@H]3CCCN4CCC[C@@H]34)nc(C(C)C)c2n1` (stereo in doubt) [Compound 7, N-[Cis-1,2,3,5,6,7,8,8a-octahydroindolizin-8-yl]-2-(2-ethyl-7-isopropyl-4-oxo-pyrazolo[3,4-d]pyridazin-5-yl) acetamide hydrochloride], for which the IC50 was in the range of 1000 to 3000 nM.

Turning to `CC(C)c1nn(CC(=O)N[C@H]2C[C@@](C)(O)C2)c(=O)c2sc(Br)cc12` [Compound 74, 2-(2-Bromo-4-isopropyl-7-oxothieno[2,3-d]pyridazin-6(7H)-yl)-N-(cis-3-hydroxy-3-methylcyclobutyl)acetamide], the IC50 was 1000 to 3000 nM.

For the molecule `CC(C)c1nn(CC(=O)Nc2ncccn2)c(=O)c2sc(NCC(F)F)cc12` [Compound 95, 2-{2-[(2,2-Difluoroethyl)amino]-7-oxo-4-(propan-2-yl)-6H,7H-thieno[2,3-d]pyridazin-6-yl}-N-(pyrimidin-2-yl)acetamide], the IC50 was 100 to 1000 nM.

Consider `CCOC(=O)c1cnc(NC(=O)Cn2nc(C)c3oc(C4CC4)cc3c2=O)nc1` [Compound 90, Ethyl 2-(2-{2-cyclopropyl-7-methyl-4-oxo-4H,5H-furo[2,3-d]pyridazin-5-yl}acetamido)pyrimidine-5-carboxylate], for which the IC50 is 100 to 1000 nM.

In turn, `Cc1nn(CC(=O)Nc2ncc(Cl)cn2)c(=O)c2cc(C3CC3)oc12` [Compound 84, N-(5-Chloropyrimidin-2-yl)-2-{2-cyclopropyl-7-methyl-4-oxo-4H,5H-furo[2,3-d]pyridazin-5-yl}acetamide] returned an IC50 of 100 to 1000 nM.

Molecule `CC(C)c1nn(CC(=O)N[C@H]2C[C@@](C)(O)C2)c(=O)c2cc(C3CC3)oc12` [Compound 81, 2-(2-Cyclopropyl-7-isopropyl-4-oxofuro[2,3-d]pyridazin-5(4H)-yl)-N-((1s,3s)-3-hydroxy-3-methylcyclobutyl)acetamide] returned an IC50 of 100 to 1000 nM.

For `CCc1cc2c(C(C)C)nn(CC(=O)N[C@H]3C[C@@](C)(O)C3)c(=O)c2s1` [Compound 69, 2-(2-Ethyl-4-isopropyl-7-oxothieno[2,3-d]pyridazin-6(7H)-yl)-N-((cis)-3-hydroxy-3-methylcyclobutyl)acetamide], the IC50 lay within 100 to 1000 nM.

`CC(C)c1nn(CC(=O)Nc2ncc(F)cn2)c(=O)c2cn(C(C)C)nc12` [Compound 15, 2-(2,7-Diisopropyl-4-oxo-pyrazolo[3,4-d]pyridazin-5-yl)-N-(5-fluoropyrimidin-2-yl)acetamide] returned an IC50 of 100 to 1000 nM.

The molecule `C=C(C)c1nn(CC(=O)N[C@@H]2CCCN(C3CC3)C2)c(=O)c2ncn(C)c12` [Compound 13, N-[(3R)-1-Cyclopropyl-3-piperidyl]-2-(7-isopropenyl-1-methyl-4-oxo-imidazo[4,5-d]pyridazin-5-yl)acetamide] returned an IC50 of 10000 to 50000 nM.

`CC(C)c1nn(CC(=O)N[C@@H]2CCCN(C3CC3)C2)c(=O)c2ncn(C)c12` [Compound 14, N-[(3R)-1-Cyclopropyl-3-piperidyl]-2-(7-isopropyl-1-methyl-4-oxo-imidazo[4,5-d]pyridazin-5-yl)acetamide] came in with an IC50 of 10000 to 50000 nM.

Turning to `CC(C)c1nn(CC(=O)Nc2ncc(F)cn2)c(=O)c2sc(Cl)nc12` [Compound 61], the IC50 was 1000 to 3000 nM.

As usually defined, the IC50 is the concentration that gives 50% inhibition. The low end stands for greater potency, the high end for weaker potency.
